Experiments:
PD-1/PD-L1 = PD-1/PD-L1 (Homo sapiens, UniProt Q9NZQ7); test: PD-1/PD-L1 biochemical protein-protein interaction assay (ALPHA); type: binding; details: 0.3 nM His tagged PD-L1, 2.5 nM biotinylated Fc-PD-1, 60 minutes at 25° C., read-out: IC50 PD-L1-PD-1 Alpha IC50-mono PD-L1-fcP-D1
Method in brief: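 ALPHA bead proximity assay of extracellular domains: 0.3 nM His-PD-L1 with 2.5 nM biotinylated Fc-PD-1 in 25 mM Hepes pH 7.4, 150 mM NaCl, 3.4 mM EDTA, 0.005% Tween 20, 0.01% BSA, 60 min at 25 °C. Anti-His acceptor and streptavidin donor beads added; IC50 from four-parameter fit of signal loss.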

PD-1/PD-L1 interaction = target: T1, PD-1/PD-L1 interaction (Homo sapiens, UniProt Q9NZQ7); test: PD-1/PD-L1 NFAT reporter co-culture assay; type: cell-based; details: Jurkat PD-1 NFAT-luciferase cells co-cultured with aAPC-PD-L1 CHO cells, 6 hrs at 37° C.; read-out: EC50 NFAT Luciferase
T1 construct: expressed in transfected cells; host or cells: CHO cells (aAPC-PD-L1) co-cultured with Jurkat cells overexpressing PD-1 and an NFAT-luciferase reporter
T1 sequence (Q9NZQ7 19-290): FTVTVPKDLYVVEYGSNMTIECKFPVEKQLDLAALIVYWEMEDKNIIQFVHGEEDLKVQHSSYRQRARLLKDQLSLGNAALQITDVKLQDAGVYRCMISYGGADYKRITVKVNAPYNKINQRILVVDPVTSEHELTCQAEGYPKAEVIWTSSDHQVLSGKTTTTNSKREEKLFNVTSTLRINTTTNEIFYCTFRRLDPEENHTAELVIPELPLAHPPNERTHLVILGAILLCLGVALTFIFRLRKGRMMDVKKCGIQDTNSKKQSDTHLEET
Method in brief: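 First, CHO cells displaying anti-CD3 antibody and PD-L1 were plated overnight. Next, compound-treated PD-1 Jurkat NFAT-luciferase reporter cells in 2% FBS RPMI were added for 6 h at 37 °C. Finally, ONE-Glo luminescence was read and EC50 values fitted with a four-parameter equation.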

PD-L1 = target: T2, PD-L1 (Homo sapiens, UniProt Q9NZQ7); test: PD-L1/PD-L1 dimerization biochemical protein-protein interaction assay (ALPHA); type: binding; details: compound-induced PD-L1 dimerization, head prints '1 nM' (0.5 nM His-tagged PD-L1 and 0.5 nM FLAG-tagged PD-L1), read-out: AC50 PDL1 Dimer Alpha 1 nM
T2 construct: determine if they can specifically dimerize the extracellular domains of PD-L1
T2 sequence (Q9NZQ7 19-238 limits assumed): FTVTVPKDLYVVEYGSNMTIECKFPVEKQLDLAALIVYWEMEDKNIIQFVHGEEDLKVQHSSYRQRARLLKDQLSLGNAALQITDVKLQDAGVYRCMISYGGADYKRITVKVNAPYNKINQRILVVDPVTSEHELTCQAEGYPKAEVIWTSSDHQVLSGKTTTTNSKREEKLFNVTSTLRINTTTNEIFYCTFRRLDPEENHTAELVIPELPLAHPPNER
T2 sequence (Q9NZQ7 19-238 limits assumed): as above
Method in brief: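 ALPHA proximity assay of compound-induced dimerization of 0.5 nM His-tagged and 0.5 nM FLAG-tagged PD-L1 extracellular domains in Hepes pH 7.4 buffer, 2 h at 25 °C. Anti-His acceptor then anti-FLAG donor beads, 60 min each; AC50 from four-parameter fit.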

Chain of PD-1/PD-L1 (Q9NZQ7 19-238 limits assumed): as above

SMILES | IC50 (PD-1/PD-L1) [nM] | EC50 (PD-1/PD-L1 interaction) [nM] | AC50 (PD-L1) [nM]
Cc1c(COc2cc(OCc3cncc(C#N)c3)c(CN[C@@](C)(CO)C(=O)O)cc2Cl)cccc1-c1cccc(-c2ccc(C3CCNC3)cc2)c1C (stereo partly drawn) [Example 342, (S)-2-((5-chloro-2-((5-cyanopyridin-3-yl)methoxy)-4-((2,2′-dimethyl-4″-((R)-pyrrolidin-3-yl)-[1,1′:3′,1″-terphenyl]-3-yl)methoxy)benzyl)amino)-3-hydroxy-2-methylpropanoic acid and(S)-2-((5-chloro-2-((5-cyanopyridin-3-yl)methoxy)-4-((2,2′-dimethyl-4″-((S)-pyrrolidin-3-yl)-[1,1′:3′,1″-terphenyl]-3-yl)methoxy)benzyl)amino)-3-hydroxy-2-methylpropanoic] | 0.4 | 447 | 118
Cc1c(COc2cc(OCc3cncc(C#N)c3)c(CN[C@@](C)(CO)C(=O)O)cc2Cl)cccc1-c1cccc(-c2ccc3c(c2)CC(N)C3)c1C (stereo partly drawn) [Example 343, (S)-2-((4-((3′-((R)-2-amino-2,3-dihydro-1H-inden-5-yl)-2,2′-dimethyl-[1,1′-biphenyl]-3-yl)methoxy)-5-chloro-2-((5-cyanopyridin-3-yl)methoxy)benzyl)amino)-3-hydroxy-2-methylpropanoic acid and(S)-2-((4-((3′-((S)-2-amino-2,3-dihydro-1H-inden-5-yl)-2,2′-dimethyl-[1,1′-biphenyl]-3-yl)methoxy)-5-chloro-2-((5-cyanopyridin-3-yl)methoxy)benzyl)amino)-3-hydroxy-2-methylpropanoic acid] | 0.218 | 158 | 81.1
N#Cc1cc(C#N)cc(COc2nc(OCc3cccc(-c4cccc(-c5ccc(OCCNCCO)cc5)c4Cl)c3Cl)c(Cl)cc2CNC[C@@H](O)CC(=O)O)c1 [Example 351, (S)-4-(((5-chloro-6-((2,2′-dichloro-4″-(2-((2-hydroxyethyl)amino)ethoxy)-[1,1′:3′,1″-terphenyl]-3-yl)methoxy)-2-((3,5-dicyanobenzyl)oxy)pyridin-3-yl)methyl)amino)-3-hydroxybutanoic acid] | 0.982 | 235 | 168
Cc1c(COc2cc(OCc3cncc(C#N)c3)c(CNC[C@@H](O)CC(=O)O)cc2Cl)cccc1-c1cccc(-c2ccc(OC[C@@H](N)CO)cc2)c1C [Example 353, (S)-4-((4-((4″-((S)-2-amino-3-hydroxypropoxy)-2,2′-dimethyl-[1,1′:3′,1″-terphenyl]-3-yl)methoxy)-5-chloro-2-((5-cyanopyridin-3-yl)methoxy)benzyl)amino)-3-hydroxybutanoic acid] | 0.311 | 153 | 215
Cc1c(COc2cc(OCc3cncc(C#N)c3)c(CNC[C@@H](O)CC(=O)O)cc2Cl)cccc1-c1cccc(-c2ccc(O[C@H]3CCCN(CCO)C3)cc2)c1C [Example 354, (S)-4-((5-chloro-2-((5-cyanopyridin-3-yl)methoxy)-4-((4″-(((S)-1-(2-hydroxyethyl)piperidin-3-yl)oxy)-2,2′-dimethyl-[1,1′:3′,1″-terphenyl]-3-yl)methoxy)benzyl)amino)-3-hydroxybutanoic acid] | 0.241 | 1880 | 342
COc1cc(OCc2cccc(-c3cccc(COc4cc(OC)c(CNC[C@@H](O)CC(=O)O)cc4C(F)(F)F)c3C)c2C)c(Cl)cc1CNC[C@@H](O)CC(=O)O [Example 357, (S)-4-((4-((3′-((4-((((S)-3-carboxy-2-hydroxypropyl)amino)methyl)-2-chloro-5-methoxyphenoxy)methyl)-2,2′-dimethyl-[1,1′-biphenyl]-3-yl)methoxy)-2-methoxy-5-(trifluoromethyl)benzyl)amino)-3-hydroxybutanoic acid] | 0.358 | 202 | ≥ 10000

Now those with a lower IC50 (PD-1/PD-L1), led by results:

IC50 (PD-1/PD-L1) [nM] | EC50 (PD-1/PD-L1 interaction) [nM] | AC50 (PD-L1) [nM] | SMILES
0.087 | 217 | 27.8 | C[C@@](CO)(NCc1cc(Cl)c(OCc2cccc(-c3cccc(-c4ccc(OCCNCCO)cc4)c3Cl)c2Cl)nc1OCc1cncc(C#N)c1)C(=O)O [Example 340, (S)-2-(((5-chloro-2-((5-cyanopyridin-3-yl)methoxy)-6-((2,2′-dichloro-4″-(2-((2-hydroxyethyl)amino)ethoxy)-[1,1′:3′,1″-terphenyl]-3-yl)methoxy)pyridin-3-yl)methyl)amino)-3-hydroxy-2-methylpropanoic acid]
0.064 | 284 | 38.3 | Cc1c(COc2cc(OCc3cncc(C#N)c3)c(CNC[C@@H](O)CC(=O)O)cc2Cl)cccc1-c1cccc(-c2ccc(OCCNC[C@@H](O)CC(=O)O)cc2)c1Cl [Example 341, (S)-4-((4-((4″-(2-(((S)-3-carboxy-2-hydroxypropyl)amino)ethoxy)-2′-chloro-2-methyl-[1,1′:3′,1″-terphenyl]-3-yl)methoxy)-5-chloro-2-((5-cyanopyridin-3-yl)methoxy)benzyl)amino)-3-hydroxybutanoic acid]
0.064 | 475 | 55 | Cc1c(COc2cc(OCc3cncc(C#N)c3)c(CN3CCCC[C@H]3C(=O)O)cc2Cl)cccc1-c1cccc(-c2ccc(OCCNCCO)cc2)c1C [Example 344, (S)-1-(5-chloro-2-((5-cyanopyridin-3-yl)methoxy)-4-((4″-(2-((2-hydroxyethyl)amino)ethoxy)-2,2′-dimethyl-[1,1′:3′,1″-terphenyl]-3-yl)methoxy)benzyl)piperidine-2-carboxylic acid]
0.09 | 552 | 229 | Cc1c(COc2cc(OCc3cncc(C#N)c3)c(CN3CC[C@@H](C(=O)O)C3)cc2Cl)cccc1-c1cccc(-c2ccc(OCCNCCO)cc2)c1C [Example 345, (R)-1-(5-chloro-2-((5-cyanopyridin-3-yl)methoxy)-4-((4″-(2-((2-hydroxyethyl)amino)ethoxy)-2,2′-dimethyl-[1,1′:3′,1″-terphenyl]-3-yl)methoxy)benzyl)pyrrolidine-3-carboxylic acid]
0.074 | 214 | 181 | Cc1c(COc2cc(OCc3cncc(C#N)c3)c(CNC[C@@H](O)CC(=O)O)cc2Cl)cccc1-c1cccc(NC(=O)c2ccc(CNC[C@@H](O)CC(=O)O)cn2)c1C [Example 346, (S)-4-(((6-((3′-((4-((((S)-3-carboxy-2-hydroxypropyl)amino)methyl)-2-chloro-5-((5-cyanopyridin-3-yl)methoxy)phenoxy)methyl)-2,2′-dimethyl-[1,1′-biphenyl]-3-yl)carbamoyl)pyridin-3-yl)methyl)amino)-3-hydroxybutanoic acid]
0.211 | 142 | 125 | Cc1c(COc2cc(OCc3cncc(C#N)c3)c(CNC[C@@H](O)CC(=O)O)cc2Cl)cccc1-c1cccc(-c2ccc3c(c2)c(C)nn3CCNC[C@@H](O)CC(=O)O)c1C [Example 347, (S)-4-((4-((3′-(1-(2-(((S)-3-carboxy-2-hydroxypropyl)amino)ethyl)-3-methyl-1H-indazol-5-yl)-2,2′-dimethyl-[1,1′-biphenyl]-3-yl)methoxy)-5-chloro-2-((5-cyanopyridin-3-yl)methoxy)benzyl)amino)-3-hydroxybutanoic acid]
0.122 | 381 | 80.4 | Cc1c(COc2cc(OCc3cncc(C#N)c3)c(CNC[C@@H](O)CC(=O)O)cc2Cl)cccc1-c1cccc(-c2ccc3c(CCNC[C@@H](O)CC(=O)O)coc3c2)c1C [Example 348, (S)-4-((4-((3′-(3-(2-(((S)-3-carboxy-2-hydroxypropyl)amino)ethyl)benzofuran-6-yl)-2,2′-dimethyl-[1,1′-biphenyl]-3-yl)methoxy)-5-chloro-2-((5-cyanopyridin-3-yl)methoxy)benzyl)amino)-3-hydroxybutanoic acid]
0.105 | 527 | 252 | Cc1c(COc2cc(OCc3cncc(C#N)c3)c(CNC[C@@H](O)CC(=O)O)cc2Cl)cccc1-c1cccc(-c2ncc(COCCNC[C@@H](O)CC(=O)O)s2)c1C [Example 350, (S)-4-((4-((3′-(5-((2-(((S)-3-carboxy-2-hydroxypropyl)amino)ethoxy)methyl)thiazol-2-yl)-2,2′-dimethyl-[1,1′-biphenyl]-3-yl)methoxy)-5-chloro-2-((5-cyanopyridin-3-yl)methoxy)benzyl)amino)-3-hydroxybutanoic acid]
0.207 | 105 | 56.3 | C[C@@](CO)(NCc1cc(Cl)c(OCc2cccc(-c3cccc(-c4ccc(OCCNCCO)cc4)c3Cl)c2Cl)nc1OCc1cc(C#N)cc(C#N)c1)C(=O)O [Example 352, (S)-2-(((5-chloro-6-((2,2′-dichloro-4″-(2-((2-hydroxyethyl)amino)ethoxy)-[1,1′:3′,1″-terphenyl]-3-yl)methoxy)-2-((3,5-dicyanobenzyl)oxy)pyridin-3-yl)methyl)amino)-3-hydroxy-2-methylpropanoic acid]
